In ChEMBL document CHEMBL1133694, “Hydroxamic acid derivatives as potent peptide deformylase inhibitors and antibacterial agents” (J Med Chem, 2000):
pIC50: −log10 of the molar value. Converted amounts (≈) assume the structure as drawn.

Key:
Collagenase 3 = Collagenase 3 (Homo sapiens, UniProt P45452); assay: Inhibition of Matrix metalloprotease-13
Escherichia coli [1] = assay: In vitro antibacterial activity against Escherichia coli ATCC 25922.; type: functional
Haemophilus influenzae = assay: In vitro antibacterial activity against Haemophilus influenzae 11.; type: functional
[2] = target: T1, Endothelin-converting enzyme 1 (Homo sapiens, UniProt P42892); assay: Inhibitory activity against Endothelin-converting enzyme 1
T1 sequence (P42892 whole entry): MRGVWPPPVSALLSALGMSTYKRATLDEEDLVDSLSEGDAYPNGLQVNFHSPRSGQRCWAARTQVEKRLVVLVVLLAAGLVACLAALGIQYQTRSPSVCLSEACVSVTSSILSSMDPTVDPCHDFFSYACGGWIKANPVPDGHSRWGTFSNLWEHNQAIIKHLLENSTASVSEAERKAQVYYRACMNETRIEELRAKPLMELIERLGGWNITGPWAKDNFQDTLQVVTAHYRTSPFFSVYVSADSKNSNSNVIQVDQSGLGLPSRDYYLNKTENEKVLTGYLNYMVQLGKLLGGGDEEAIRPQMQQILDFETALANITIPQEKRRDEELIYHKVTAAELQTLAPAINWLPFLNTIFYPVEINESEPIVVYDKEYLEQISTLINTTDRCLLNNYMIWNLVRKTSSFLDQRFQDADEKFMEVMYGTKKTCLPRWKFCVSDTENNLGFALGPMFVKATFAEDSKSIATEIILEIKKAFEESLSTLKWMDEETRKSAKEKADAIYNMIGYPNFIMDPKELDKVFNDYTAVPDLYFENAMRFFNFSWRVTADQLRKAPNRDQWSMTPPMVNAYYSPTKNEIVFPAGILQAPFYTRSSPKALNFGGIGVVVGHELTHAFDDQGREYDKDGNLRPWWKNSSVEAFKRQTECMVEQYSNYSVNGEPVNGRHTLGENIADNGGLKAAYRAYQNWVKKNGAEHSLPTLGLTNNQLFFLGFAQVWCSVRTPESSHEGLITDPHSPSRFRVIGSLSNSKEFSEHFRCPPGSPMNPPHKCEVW

Interstitial collagenase = target: T2, Interstitial collagenase (Homo sapiens, UniProt P03956); assay: Inhibition of Matrix metalloprotease-1
T2 sequence (P03956 whole entry): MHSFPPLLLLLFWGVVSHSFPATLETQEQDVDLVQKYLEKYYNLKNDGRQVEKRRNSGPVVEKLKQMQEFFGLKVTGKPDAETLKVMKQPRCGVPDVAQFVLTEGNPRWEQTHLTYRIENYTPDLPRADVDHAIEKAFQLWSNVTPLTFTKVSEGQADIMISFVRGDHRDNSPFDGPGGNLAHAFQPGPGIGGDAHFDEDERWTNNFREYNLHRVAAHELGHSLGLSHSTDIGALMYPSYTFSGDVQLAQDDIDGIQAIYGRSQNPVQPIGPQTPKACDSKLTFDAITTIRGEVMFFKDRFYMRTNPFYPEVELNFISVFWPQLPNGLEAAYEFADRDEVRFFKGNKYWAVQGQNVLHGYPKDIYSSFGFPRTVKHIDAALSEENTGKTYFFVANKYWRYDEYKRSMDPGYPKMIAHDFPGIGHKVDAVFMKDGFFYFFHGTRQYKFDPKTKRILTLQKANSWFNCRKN

[3] = target: Macrophage metalloelastase (Homo sapiens, UniProt P39900); assay: Inhibition of human Matrix metalloprotease-12
Sequence of Macrophage metalloelastase (P39900 whole entry): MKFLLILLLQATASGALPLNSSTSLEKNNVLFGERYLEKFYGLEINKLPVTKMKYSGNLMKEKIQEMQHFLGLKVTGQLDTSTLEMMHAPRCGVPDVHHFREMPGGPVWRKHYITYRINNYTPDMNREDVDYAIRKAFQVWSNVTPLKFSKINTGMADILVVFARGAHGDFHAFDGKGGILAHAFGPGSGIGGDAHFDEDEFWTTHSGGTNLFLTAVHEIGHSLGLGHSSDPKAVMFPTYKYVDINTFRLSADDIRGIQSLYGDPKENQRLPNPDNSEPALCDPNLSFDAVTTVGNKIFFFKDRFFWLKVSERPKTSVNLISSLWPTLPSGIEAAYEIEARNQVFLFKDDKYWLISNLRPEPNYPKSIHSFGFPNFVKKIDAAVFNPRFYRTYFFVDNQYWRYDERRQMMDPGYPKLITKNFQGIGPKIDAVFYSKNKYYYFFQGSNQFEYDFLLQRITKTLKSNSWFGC

Chlamydia pneumoniae = assay: In vitro antibacterial activity against Chlamydia pneumoniae AR-39.; type: functional
Bacillus subtilis = assay: In vitro antibacterial activity against Bacillus subtilis ATCC 585969.; type: functional
Streptococcus pneumoniae [4] = assay: In vitro antibacterial activity against Streptococcus pneumoniae ATCC 49619.; type: functional
[5] = target: Angiotensin-converting enzyme (Homo sapiens, UniProt P12821)
Sequence of Angiotensin-converting enzyme (P12821 whole entry): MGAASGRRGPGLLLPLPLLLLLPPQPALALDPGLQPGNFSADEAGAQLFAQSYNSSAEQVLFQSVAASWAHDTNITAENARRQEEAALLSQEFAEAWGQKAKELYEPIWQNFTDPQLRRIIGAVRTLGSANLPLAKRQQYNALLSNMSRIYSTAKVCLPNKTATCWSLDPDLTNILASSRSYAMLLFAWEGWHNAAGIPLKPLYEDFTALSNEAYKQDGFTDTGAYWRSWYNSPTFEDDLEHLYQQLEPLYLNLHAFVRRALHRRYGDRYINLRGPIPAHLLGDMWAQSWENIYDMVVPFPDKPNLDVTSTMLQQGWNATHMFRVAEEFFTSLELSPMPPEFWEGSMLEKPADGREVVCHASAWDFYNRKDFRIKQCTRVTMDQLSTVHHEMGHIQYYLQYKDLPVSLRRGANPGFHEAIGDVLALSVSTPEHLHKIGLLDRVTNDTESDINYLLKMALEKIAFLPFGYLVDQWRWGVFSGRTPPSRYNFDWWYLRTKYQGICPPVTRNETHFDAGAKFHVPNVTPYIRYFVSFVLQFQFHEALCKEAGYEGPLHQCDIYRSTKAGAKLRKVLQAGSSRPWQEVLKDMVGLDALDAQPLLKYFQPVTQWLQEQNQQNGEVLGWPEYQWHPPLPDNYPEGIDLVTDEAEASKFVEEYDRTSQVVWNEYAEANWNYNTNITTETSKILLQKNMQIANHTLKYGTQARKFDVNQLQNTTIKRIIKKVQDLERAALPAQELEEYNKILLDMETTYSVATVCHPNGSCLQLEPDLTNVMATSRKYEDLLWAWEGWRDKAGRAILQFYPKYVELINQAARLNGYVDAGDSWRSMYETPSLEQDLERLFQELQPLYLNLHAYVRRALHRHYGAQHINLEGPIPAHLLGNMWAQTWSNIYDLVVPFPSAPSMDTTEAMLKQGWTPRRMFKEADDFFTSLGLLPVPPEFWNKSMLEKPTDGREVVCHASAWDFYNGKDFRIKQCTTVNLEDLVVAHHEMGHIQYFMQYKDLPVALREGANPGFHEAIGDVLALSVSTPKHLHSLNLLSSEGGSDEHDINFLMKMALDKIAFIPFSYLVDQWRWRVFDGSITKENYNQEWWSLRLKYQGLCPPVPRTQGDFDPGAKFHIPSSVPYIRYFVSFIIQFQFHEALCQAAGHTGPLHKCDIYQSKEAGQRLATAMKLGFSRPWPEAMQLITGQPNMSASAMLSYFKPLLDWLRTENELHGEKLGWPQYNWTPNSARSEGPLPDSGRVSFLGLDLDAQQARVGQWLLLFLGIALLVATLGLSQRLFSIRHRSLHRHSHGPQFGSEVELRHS

Escherichia coli [6] = assay: In vitro antibacterial activity against isolated Escherichia coli DC2; type: functional
Neprilysin [7] = target: T3, Neprilysin (Rattus norvegicus, UniProt P07861); assay: Inhibitory activity against endopeptidase enzyme (NEP).
T3 sequence (P07861 whole entry): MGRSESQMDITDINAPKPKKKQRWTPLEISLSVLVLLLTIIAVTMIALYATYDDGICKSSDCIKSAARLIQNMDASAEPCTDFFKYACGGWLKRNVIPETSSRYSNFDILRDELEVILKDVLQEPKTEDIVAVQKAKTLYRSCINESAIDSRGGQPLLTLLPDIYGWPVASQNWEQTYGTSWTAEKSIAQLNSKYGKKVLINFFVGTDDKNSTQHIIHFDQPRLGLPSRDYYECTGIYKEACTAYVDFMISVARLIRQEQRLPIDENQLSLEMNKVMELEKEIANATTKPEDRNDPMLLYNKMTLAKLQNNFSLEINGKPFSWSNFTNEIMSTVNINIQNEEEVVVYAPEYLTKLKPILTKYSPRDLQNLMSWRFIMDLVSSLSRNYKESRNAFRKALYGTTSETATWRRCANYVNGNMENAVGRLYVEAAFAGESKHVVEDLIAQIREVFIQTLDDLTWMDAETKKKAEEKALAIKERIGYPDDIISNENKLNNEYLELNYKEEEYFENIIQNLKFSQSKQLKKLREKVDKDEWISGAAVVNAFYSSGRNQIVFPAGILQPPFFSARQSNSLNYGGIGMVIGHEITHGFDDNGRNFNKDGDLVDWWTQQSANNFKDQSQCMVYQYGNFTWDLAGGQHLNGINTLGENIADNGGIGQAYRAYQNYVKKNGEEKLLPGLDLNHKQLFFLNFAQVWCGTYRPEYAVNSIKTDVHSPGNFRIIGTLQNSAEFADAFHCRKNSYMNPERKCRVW

Moraxella catarrhalis = assay: In vitro antibacterial activity against isolated Moraxella catarrhalis RA21; type: functional
Staphylococcus aureus = assay: In vitro antibacterial activity against Staphylococcus aureus ATCC 25923.; type: functional
[8] = test system: Mycoplasmoides pneumoniae; assay: In vitro antibacterial activity against Mycoplasma pneumoniae ATCC 29342.; type: functional
Pseudomonas aeruginosa = assay: In vitro antibacterial activity against Pseudomonas aeruginosa ATCC 27853.; type: functional
Peptide deformylase = target: T4, Peptide deformylase (Escherichia coli, UniProt Q9JN24); assay: Inhibitory activity against isolated Escherichia coli peptidyl deformylase (PDF) enzyme containing iron.
T4 sequence (Q9JN24 whole entry): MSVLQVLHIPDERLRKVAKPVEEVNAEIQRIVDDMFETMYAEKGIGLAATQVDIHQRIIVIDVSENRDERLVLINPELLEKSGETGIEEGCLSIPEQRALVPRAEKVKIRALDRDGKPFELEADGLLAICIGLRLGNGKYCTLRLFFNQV

[9] = Inhibitory activity against PDF isolated from Bacillus subtilis
Enterococcus faecium = assay: In vitro antibacterial activity against Enterococcus faecium vanA E25_1.; type: functional
[10] = test system: peptide deformylase (Streptococcus pneumoniae); assay: Inhibitory activity against PDF isolated from Streptococcus pneumoniae
[11] = test system: Stenotrophomonas maltophilia; assay: In vitro antibacterial activity against Stenotrophomonas maltophilia 1AC739.; type: functional
Neprilysin [12] = target: T3, Neprilysin; assay: Inhibitory activity against neutral endopeptidase enzyme (NEP).
Streptococcus pneumoniae [13] = assay: In vitro antibacterial activity against Streptococcus pneumoniae 1/1 (penicillin resistant).; type: functional
Enterococcus faecalis = assay: In vitro antibacterial activity against Enterococcus faecalis ATCC 29212.; type: functional

Row | Compound | MIC (Escherichia coli [6]) | MIC (Moraxella catarrhalis) | pIC50 (Peptide deformylase) | other results
1 | CCCC[C@H](CC(=O)NO)S(=O)(=O)c1ccccc1 | 2 µg/mL (≈ 7.01 µM) | < 0.25 µg/mL |  | pIC50 (Collagenase 3): 7.10; MIC (Escherichia coli [1]): 128 µg/mL (≈ 449 µM); MIC (Haemophilus influenzae): 2 µg/mL (≈ 7.01 µM); pIC50 [2]: < 4.00; pIC50 (Interstitial collagenase): 6.82; pIC50 [3]: 7.38; MIC (Chlamydia pneumoniae): 0.5 µg/mL (≈ 1.75 µM); MIC (Bacillus subtilis): 1 µg/mL (≈ 3.5 µM); MIC (Streptococcus pneumoniae [4]): 128 µg/mL (≈ 449 µM); pIC50 [5]: 4.47; pIC50 (Neprilysin [7]): 5.60; MIC (Staphylococcus aureus): 128 µg/mL (≈ 449 µM); MIC [8]: 0.5 µg/mL (≈ 1.75 µM); MIC (Pseudomonas aeruginosa): > 128 µg/mL
2 | CCCC[C@@H](CC(=O)NO)S(=O)(=O)c1ccccc1 | > 128 µg/mL | 16 µg/mL (≈ 56.1 µM) |  | pIC50 (Collagenase 3): 7.74; pIC50 [2]: < 4.00; pIC50 (Interstitial collagenase): 6.52; pIC50 [3]: 8.05; pIC50 [5]: < 4.00; pIC50 (Neprilysin [7]): 4.82
3 | CC(CC(=O)NO)S(=O)(=O)c1ccccc1 (configuration not stated) | > 32 µg/mL | > 32 µg/mL |  | 
4 | CCCCC(CC(=O)NO)[S+]([O-])c1ccc(Br)cc1 (configuration not stated) | 1 µg/mL (≈ 2.87 µM) | < 0.125 µg/mL | 6.68 | 
5 | CCCCC(CC(=O)NO)S(=O)(=O)c1cccc(OC)c1 (configuration not stated) | 16 µg/mL (≈ 50.7 µM) | 2 µg/mL (≈ 6.34 µM) | 7.07 | 
6 | CCCCC(CC(=O)NO)S(=O)(=O)c1ccc(OC)cc1 (configuration not stated) | 16 µg/mL (≈ 50.7 µM) | 0.5 µg/mL (≈ 1.59 µM) | 7.51 | 
7 | CCCC[C@H](C(O)C(=O)NO)[S+]([O-])c1ccccc1 (some centres not stated) | 1 µg/mL (≈ 3.5 µM) | < 0.06 µg/mL |  | 
8 | CCCC[C@@H](C(O)C(=O)NO)[S+]([O-])c1ccccc1 (some centres not stated) | 32 µg/mL (≈ 112 µM) | 4 µg/mL (≈ 14 µM) |  | 
9 | CCCCCC(CC(=O)NO)S(=O)(=O)c1ccccc1 (configuration not stated) | 2 µg/mL (≈ 6.68 µM) | < 0.06 µg/mL | 6.85 | 
10 | CCCCC(CC(=O)NO)[S+]([O-])c1ccccc1 (configuration not stated) | 1 µg/mL (≈ 3.71 µM) | < 0.25 µg/mL |  | MIC (Escherichia coli [1]): 32 µg/mL (≈ 119 µM); MIC (Haemophilus influenzae): 1 µg/mL (≈ 3.71 µM); pIC50 [9]: 7.34; MIC (Enterococcus faecium): > 128 µg/mL; pIC50 [2]: < 4.00; pIC50 (Interstitial collagenase): 7.03; MIC (Chlamydia pneumoniae): 0.25 µg/mL (≈ 0.928 µM); MIC (Bacillus subtilis): 0.25 µg/mL (≈ 0.928 µM); pIC50 [10]: 6.62; MIC [11]: < 0.25 µg/mL; MIC (Streptococcus pneumoniae [4]): 32 µg/mL (≈ 119 µM); pIC50 [5]: < 4.00; MIC (Staphylococcus aureus): 16 µg/mL (≈ 59.4 µM); pIC50 (Neprilysin [12]): 5.59; MIC [8]: 0.25 µg/mL (≈ 0.928 µM); MIC (Pseudomonas aeruginosa): > 128 µg/mL; MIC (Streptococcus pneumoniae [13]): 64 µg/mL (≈ 238 µM); MIC (Enterococcus faecalis): > 128 µg/mL
11 | CCCCCCS(=O)(=O)C(CCCC)CC(=O)NO (configuration not stated) | 64 µg/mL (≈ 218 µM) | 4 µg/mL (≈ 13.6 µM) |  | 
12 | CCCCC(CC(=O)NO)S(=O)(=O)c1ccc(Br)cc1 (configuration not stated) | 16 µg/mL (≈ 43.9 µM) | 2 µg/mL (≈ 5.49 µM) |  | 
13 | CCCC(CC(=O)NO)S(=O)(=O)c1ccccc1 (configuration not stated) | 64 µg/mL (≈ 236 µM) | 4 µg/mL (≈ 14.7 µM) | 6.80 | 
14 | CCCCC(CC(=O)NO)[S+]([O-])c1ccc2ccccc2c1 (configuration not stated) | 2 µg/mL (≈ 6.26 µM) | < 0.25 µg/mL | 7.19 | 
15 | CCCCC(CC(=O)NO)[S+]([O-])c1cccc(OC)c1 (configuration not stated) | 4 µg/mL (≈ 13.4 µM) | 0.25 µg/mL (≈ 0.835 µM) | 7.03 | 
16 | CCCCC(CC(=O)NO)[S+]([O-])c1ccc(OC)cc1 (configuration not stated) | 2 µg/mL (≈ 6.68 µM) | < 0.25 µg/mL | 7.00 | 
17 | CCC(CC(=O)NO)S(=O)(=O)c1ccccc1 (configuration not stated) | > 64 µg/mL | > 64 µg/mL |  | 
18 | CCCCC(CC(=O)NO)S(=O)(=O)c1ccc(NC(C)=O)cc1 (configuration not stated) | 16 µg/mL (≈ 46.7 µM) | 1 µg/mL (≈ 2.92 µM) | 7.96 | 
19 | O=C(CC(c1ccccc1)S(=O)(=O)c1ccccc1)NO (configuration not stated) | 32 µg/mL (≈ 105 µM) | 8 µg/mL (≈ 26.2 µM) | 6.80 | 
20 | O=C(CC(c1ccc2c(c1)OCO2)S(=O)(=O)c1ccccc1)NO (configuration not stated) | 16 µg/mL (≈ 45.8 µM) | 1 µg/mL (≈ 2.86 µM) |  | 
21 | CCCCC(CC(=O)NO)S(=O)(=O)Cc1ccccc1 (configuration not stated) | 128 µg/mL (≈ 428 µM) | 16 µg/mL (≈ 53.4 µM) | 6.72 | 
22 | O=C(CC(c1ccco1)S(=O)(=O)c1ccccc1)NO (configuration not stated) | 32 µg/mL (≈ 108 µM) | 4 µg/mL (≈ 13.5 µM) |  | 
23 | CCCCC[C@H](CC(=O)NO)C(=O)N[C@H](C(=O)N1CCC[C@H]1CO)C(C)C [ACTINONIN] | 1 µg/mL (≈ 2.59 µM) | < 0.06 µg/mL |  | MIC (Escherichia coli [1]): 64 µg/mL (≈ 166 µM); MIC (Haemophilus influenzae): 2 µg/mL (≈ 5.19 µM); MIC (Enterococcus faecium): > 128 µg/mL; MIC (Chlamydia pneumoniae): 4 µg/mL (≈ 10.4 µM); MIC (Bacillus subtilis): 8 µg/mL (≈ 20.8 µM); MIC [11]: 16 µg/mL (≈ 41.5 µM); MIC (Streptococcus pneumoniae [4]): 32 µg/mL (≈ 83 µM); MIC (Staphylococcus aureus): 32 µg/mL (≈ 83 µM); MIC [8]: > 64 µg/mL; MIC (Pseudomonas aeruginosa): > 128 µg/mL; MIC (Streptococcus pneumoniae [13]): 128 µg/mL (≈ 332 µM); MIC (Enterococcus faecalis): > 128 µg/mL
